From ChEMBL document CHEMBL3885861, “Open TG-GATES”

Species on record: Rattus norvegicus
Experiment: Open TG-GATES - Regimen: Daily Repeat
Type: toxicity, organism-based, Sprague-Dawley
Design: regimen Daily Repeat, gender Male, age 6 weeks
Settings: in vivo, po, 0 mg/kg, route gavage, dose level Control; for KIDNEY_L / KIDNEY_R / KIDNEY_TOTAL: tissue Kidney
[1] = 72 h, tissue Plasma, time 3 day
[2] = […], tissue Plasma, time 14 day
[3] = […], tissue Plasma, time 28 day

In the case of `O=C(O)Cc1ccccc1Nc1c(Cl)cccc1Cl` [DICLOFENAC], the TERMINAL_BW (72 h, time 3 day) is reported as 237.4 g, the Bas (72 h, tissue Blood, time 3 day) is reported as 0% and the Eos (72 h, tissue Blood, time 3 day) is reported as 1%. For the same molecule, the Fbg (72 h, tissue Blood, time 3 day) was 222.6 mg/dL, the MCHC (72 h, tissue Blood, time 3 day) was 34.5% and the Neu (72 h, tissue Blood, time 3 day) was 21%. It also gave a Plat (72 h, tissue Blood, time 3 day) of 120.1 x10_4/uL, an RBC (72 h, tissue Blood, time 3 day) of 626.6 x10_4/ul and a Ret (72 h, tissue Blood, time 3 day) of 4.9%. For the same molecule, the WBC (72 h, tissue Blood, time 3 day) was 105.4 x10_2/uL, the KIDNEY_L (72 h, time 3 day) was 1 g and the KIDNEY_R (72 h, time 3 day) was 1 g. The KIDNEY_TOTAL (72 h, time 3 day) was 2 g, the ALP [1] was 974.8 IU/L and the AST [1] was 65 IU/L. The CRE [1] was 0.4 mg/dL, the DBIL [1] was 0.1 mg/dL and the GLC [1] was 193 mg/dL. The IP [1] was 7.8 mg/dL, the LDH [1] was 163.8 IU/L and the PL [1] was 160.6 mg/dL. The TBIL [1] was 0.2 mg/dL, the TC [1] was 74 mg/dL and the TG [1] was 141 mg/dL. For the same molecule, the TP [1] was 5.6 g/dL, the gamma-GTP [1] was 1.2 IU/L and the TERMINAL_BW ([…], time 14 day) was 317.2 g. The TERMINAL_BW ([…], time 28 day) was 396.3 g, the Bas ([…], tissue Blood, time 14 day) was 0% and the Eos ([…], tissue Blood, time 14 day) was 0.8%. The Fbg ([…], tissue Blood, time 14 day) was 221.6 mg/dL, the Lym ([…], tissue Blood, time 14 day) was 80.8% and the MCH ([…], tissue Blood, time 14 day) was 21.5 pg. The MCHC ([…], tissue Blood, time 14 day) was 35.9%, the MCV ([…], tissue Blood, time 14 day) was 59.9 fL and the Mono ([…], tissue Blood, time 14 day) was 2%. The Plat ([…], tissue Blood, time 14 day) was 106.7 x10_4/uL, the Ret ([…], tissue Blood, time 14 day) was 4% and the WBC ([…], tissue Blood, time 14 day) was 92.1 x10_2/uL. It also gave a Bas ([…], tissue Blood, time 28 day) of 0%, a Fbg ([…], tissue Blood, time 28 day) of 219.8 mg/dL and a Lym ([…], tissue Blood, time 28 day) of 84.2%. For the same molecule, the MCH ([…], tissue Blood, time 28 day) was 20.1 pg, the MCHC ([…], tissue Blood, time 28 day) was 36.1% and the MCV ([…], tissue Blood, time 28 day) was 55.9 fL. The Neu ([…], tissue Blood, time 28 day) was 11.4%, the Plat ([…], tissue Blood, time 28 day) was 102.6 x10_4/uL and the RBC ([…], tissue Blood, time 28 day) was 801.6 x10_4/ul. It also gave a Ret ([…], tissue Blood, time 28 day) of 2.3%, a WBC ([…], tissue Blood, time 28 day) of 127.9 x10_2/uL and a KIDNEY_L ([…], time 14 day) of 1.3 g. For the same molecule, the KIDNEY_R ([…], time 14 day) was 1.3 g, the KIDNEY_TOTAL ([…], time 14 day) was 2.6 g and the KIDNEY_L ([…], time 28 day) was 1.4 g. It also gave a KIDNEY_R ([…], time 28 day) of 1.4 g, a KIDNEY_TOTAL ([…], time 28 day) of 2.8 g and an LIVER ([…], tissue Liver, time 28 day) of 15.7 g. The ALP [2] was 720.8 IU/L, the ALT [2] was 31.2 IU/L and the CRE [2] was 0.4 mg/dL. It also gave a DBIL [2] of 0.1 mg/dL, a GLC [2] of 220.2 mg/dL and an IP [2] of 7.2 mg/dL. The K [2] was 3.7 meq/L, the LDH [2] was 170 IU/L and the Na [2] was 140.2 meq/L. For the same molecule, the PL [2] was 143.8 mg/dL, the RALB [2] was 3.4 g/dL and the TBIL [2] was 0.2 mg/dL. The TC [2] was 64.2 mg/dL, the TP [2] was 6 g/dL and the gamma-GTP [2] was 1 IU/L. For the same molecule, the ALP [3] was 600.6 IU/L, the AST [3] was 57 IU/L and the CRE [3] was 0.5 mg/dL. The Ca [3] was 10.3 mg/dL, the Cl [3] was 101.8 meq/L and the DBIL [3] was 0.1 mg/dL. For the same molecule, the GLC [3] was 240.8 mg/dL, the IP [3] was 6.5 mg/dL and the K [3] was 3.5 meq/L. For the same molecule, the LDH [3] was 146.4 IU/L, the Na [3] was 140.4 meq/L and the PL [3] was 151.4 mg/dL. It also gave an RALB [3] of 3.6 g/dL, a TBIL [3] of 0.2 mg/dL and a TC [3] of 68.8 mg/dL.
